The values below come from patent publication US8772290B2, “Alpha-arylmethoxyacrylate derivative, preparation method thereof, and pharmaceutical composition containing same” (Oscotech Inc., priority 2010, dated 2014).

pIC50: −log10 of the molar value.

As a reminder, the pIC50 is −log10 of the IC50, conventionally taken in molar units. Read a low pIC50 as a large IC50.

This test relates to HIF. Nature of the test: Assay for inhibitory activity against HIF activity (HIF1 luciferase reporter cell line). Type of test: cell-based, human. The following applies: Homo sapiens; HEK293 HIF1 reporter cell line, 1% oxygen, 6 hours, luciferase activity 50% inhibited. The text has this: In order to assay the compounds of the present invention for inhibitory activity against HIF activity, the HIF1 reporter plasmid (Panomics) that is designed to control the expression of luciferase by HIF was employed. The HIF1 reporter plasmid and the pTK-Hyg plasmid (Clontech), which carries a hygromycin resistant gene, were co-transfected into the HEK293 cell line (the Korean Cell Line Bank, KCLB No. 21573), derived from the human kidney, with the aid of Effectene transfection reagent (Qiagen). Then, the cells were cultured for 3 weeks on a medium containing 200 μg/mL hygromycin to select transformants resistant to hygromycin. The cell colonies derived from single cells were transferred to 24-well plates to secure a reporter cell line. The cells were seeded at a density of 4×10^4 cells/well into 96-well plates containing DMEM and incubated for 24 hours before treatment with the compounds of the present invention at a concentration of 25 μM, 5 μM, 1 μM, 200 nM, 40 nM, 8 nM, 1.6 nM, 320 pM, 64 pM, 12.8 pM, 2.56 pM, 512 fM, 102 fM, 20.4 fM, or an amount between any two concentrations above as shown in FIGS. 1A to 1C. Under 1% oxygen condition, the cells were incubated for 6 hours and then, the medium was removed. The cells were lyzed by incubation for 5 min with 100 μL of the mixture of Bright-Glo™ luciferase assay buffer and Bright-Glo™ luciferase assay substrate (Promega). The whole cell lysate was transferred to 96-well, white plates (PerkinElmer) and measured for luminescence using Victor™ 3 (PerkinElmer). From the luminescence measurements, IC50 (a concentration of the compound at which luciferase activity was 50% inhibited) was calculated using the GraphPad Prism™ 4 program. The results are summarized in Table 2 and illustrated in FIGS. 1A to 1C.
(A reporter such as luciferase makes a cellular process visible.)

Consider `CCCO/N=C(\CC)c1cc(C)c(OCc2ccccc2/C(=C\OC)C(=O)OC)cc1C` [Compound 1, (E)-methyl 2-(2-((2,5-dimethyl-4-((E)-1-(propoxyimino)propyl)phenoxy)-methyl)phenyl)-3-methoxyacrylate], for which the pIC50 is 9.00. On to `CCCO/N=C(\C)c1cc(C)c(OCc2ccccc2/C(=C\OC)C(=O)OC)cc1C` [Compound 2, (E)-methyl 2-(2-((2,5-dimethyl-4-((E)-1-(propoxyimino)ethyl)phenoxy)-methyl)phenyl)-3-methoxyacrylate], for which the pIC50 was 9.00. With `CO/C=C(/C(=O)OC)c1ccccc1COc1cccc(OCc2ccccc2)c1` [Compound 3, (E)-methyl 2-(2-((3-(benzyloxy)phenoxy)methyl)phenyl)-3-methoxyacrylate], the pIC50 is 7.30. `CCO/N=C/c1cccc(OCc2ccccc2/C(=C\OC)C(=O)OC)c1` [Compound 4, (E)-methyl 2-(2-((3-((E)-(ethoxyimino)methyl)phenoxy)methyl)phenyl)-3-methoxyacrylate] gave a pIC50 of 6.54. In the case of `CO/C=C(/C(=O)OC)c1ccccc1COc1cccc(O)c1` [Compound 5, (E)-methyl 2-(2-((5-hydroxyphenoxy)methyl)phenyl)-3-methoxyacrylate] it was 5.70; in that of `CO/C=C(/C(=O)OC)c1ccccc1COc1cc(C=O)ccc1OC` [Compound 6, (E)-methyl 2-(2-((5-formyl-2-methoxyphenoxy)methyl)phenyl)-3-methoxyacrylate], 4.83.

As for `CCCO/N=C(\CC)c1cccc(OCc2ccccc2/C(=C\OC)C(=O)OC)c1` [Compound 7, (E)-methyl 2-(2-((3-((E)-1-(propoxyimino)propyl)phenoxy)methyl)-phenyl)-3-methoxyacrylate], the pIC50 was 5.29. Under `CCCO/N=C(\C)c1ccc(OCc2ccccc2/C(=C\OC)C(=O)OC)cc1` [Compound 8, (E)-methyl 2-(2-((4-((E)-1-(propoxyimino)ethyl)phenoxy)methyl)phenyl)-3-methoxyacrylate] stands 5.95; under `CO/C=C(/C(=O)OC)c1ccccc1COc1ccc(/C(C)=N/OCCN2CCCCC2)cc1` [Compound 9, (E)-methyl 2-(2-((4-((E)-1-(2-(piperidin-1-yl)ethoxyimino)ethyl)phenoxy)-methyl)phenyl)-3-methoxyacrylate], 5.19.

`CO/C=C(/C(=O)OC)c1ccccc1COc1cccc(/C=N/OCCN2CCCCC2)c1` [Compound 10, (E)-methyl 3-methoxy-2-(2-((3-((E)-(2-(piperidin-1-yl)ethoxyimino)methyl)phenoxy)methyl)phenyl)acrylate] gave a pIC50 of 5.15. For `CO/C=C(/C(=O)OC)c1ccccc1COc1cccc(OCCNCCO)c1` [Compound 11, (E)-methyl 2-(2-((3-(2-(2-hydroxyethylamino)ethoxy)phenoxy)methyl)-phenyl)-3-methoxyacrylate], the pIC50 is 6.19.

With `CO/C=C(/C(=O)OC)c1ccccc1COc1cccc(OCCO)c1` [Compound 12, (E)-methyl 2-(2-((3-(2-hydroxyethoxy)phenoxy)methyl)phenyl)-3-methoxyacrylate], the pIC50 is 5.22. This pIC50 lies 0.97 log units lower than the previous one. `CO/C=C(/C(=O)OC)c1ccccc1COc1cccc(OCC[N+]2([O-])CCOCC2)c1` [Compound 13, (E)-4-(2-(3-(2-(1,3-dimethoxy-3-oxoprop-1-en-2-yl)benzyloxy)phenoxy)-ethyl)morpholine 4-oxide]: the pIC50 is 5.00.

In turn, `CCCO/N=C/c1cccc(OCc2ccccc2/C(=C\OC)C(=O)OC)c1` [Compound 14, (E)-methyl 3-methoxy-2-(2-((3-((E)-(propoxyimino)methyl)phenoxy)-methyl)phenyl)acrylate] had a pIC50 of 4.70. Compound `CO/C=C(/C(=O)OC)c1ccccc1COc1cc(O)cc(F)c1` [Compound 15, (E)-methyl 2-(2-((3-fluoro-5-hydroxyphenoxy)methyl)phenyl)-3-methoxyacrylate] showed a negative logarithm of the IC50 (pIC50) of 5.43. This pIC50 lies 0.73 log units higher than the previous one. The compound `CO/C=C(/C(=O)OC)c1ccccc1COc1cccc(OCCc2ccccc2)c1` [Compound 16, (E)-methyl 2-(2-((3-phenethoxyphenoxy)methyl)phenyl)-3-methoxyacrylate] had a pIC50 of 6.47. In turn, `CO/C=C(/C(=O)OC)c1ccccc1COc1ccc(/C(C)=N/OCc2ccccc2)cc1` [Compound 17, (E)-methyl 2-(2-((4-((E)-1-(benzyloxyimino)ethyl)phenoxy)methyl)-phenyl)-3-methoxyacrylate] gave a pIC50 of 6.43.

`CO/C=C(/C(=O)OC)c1ccccc1COc1ccc(/C(C)=N/OCCc2ccccc2)cc1` [Compound 18, (E)-methyl 2-(2-((4-((E)-1-(phenethoxyimino)ethyl)phenoxy)methyl)-phenyl)-3-methoxyacrylate] gave a pIC50 of 6.40.

The compound `CO/C=C(/C(=O)OC)c1ccccc1COc1ccc(F)cc1` [Compound 19, (E)-methyl 2-(2-((4-fluorophenoxy)methyl)phenyl)-3-methoxyacrylate] had a negative-log IC50 (pIC50) of 6.04. In turn, `CO/C=C(/C(=O)OC)c1ccccc1COc1cc(F)cc(OCc2ccccc2)c1` [Compound 21, (E)-methyl 2-(2-((3-(benzyloxy)-5-fluorophenoxy)methyl)phenyl)-3-methoxyacrylate] had a pIC50 of 6.31. `CO/C=C(/C(=O)OC)c1ccccc1COc1cc(F)cc(OCCOc2ccccc2)c1` [Compound 22, (E)-methyl 2-(2-((3-fluoro-5-(2-phenoxyethoxy)phenoxy)methyl)phenyl)-3-methoxyacrylate] showed a pIC50 of 6.59. Consider `CO/C=C(/C(=O)OC)c1ccccc1COc1cc(F)cc(OCc2ccccn2)c1` [Compound 23, (E)-methyl 2-(2-((3-fluoro-5-(pyridin-2-ylmethoxy)phenoxy)methyl)-phenyl)-3-methoxyacrylate], for which the pIC50 is 6.64. In turn, `CO/C=C(/C(=O)OC)c1ccccc1COc1cc(F)cc(OCc2ccc([N+](=O)[O-])cc2)c1` [Compound 24, (E)-methyl 2-(2-((3-fluoro-5-(4-nitrobenzyloxy)phenoxy)methyl)phenyl)-3-methoxyacrylate] had a pIC50 of 6.19.

As for `CO/C=C(/C(=O)OC)c1ccccc1COc1cccc(/C=N/N2CCOCC2)c1` [Compound 25, (E)-methyl 3-methoxy-2-(2-((3-((E)-(morpholinoimino)methyl)phenoxy)-methyl)phenyl)acrylate], the pIC50 is 6.36. Consider `CO/C=C(/C(=O)OC)c1ccccc1COc1cccc(OCc2ccccn2)c1` [Compound 26, (E)-methyl 2-(2-((3-(pyridin-2-ylmethoxy)phenoxy)methyl)phenyl)-3-methoxyacrylate], for which the pIC50 was 6.29. The compound `CO/C=C(/C(=O)OC)c1ccccc1COc1cccc(OCc2ccncc2)c1` [Compound 27, (E)-methyl 2-(2-((3-(pyridin-4-ylmethoxy)phenoxy)methyl)phenyl)-3-methoxyacrylate] had a pIC50 of 6.47. For the compound `CO/C=C(/C(=O)OC)c1ccccc1COc1cc(O)cc(OCc2ccccn2)c1` [Compound 28, (E)-methyl 2-(2-((3-hydroxy-5-(pyridin-2-ylmethoxy)phenoxy)methyl)-phenyl)-3-methoxyacrylate], the pIC50 was 6.15. Under `CO/C=C(/C(=O)OC)c1ccccc1COc1cc(O)cc(OCc2ccncc2)c1` [Compound 29, (E)-methyl 2-(2-((3-hydroxy-5-(pyridin-4-ylmethoxy)phenoxy)methyl)-phenyl)-3-methoxyacrylate] stands 4.96. For the compound `CC/C(=N\N1CCOCC1)c1cc(C)c(OCc2ccccc2/C(=C\OC)C(=O)OC)cc1C` [Compound 30, (E)-methyl 2-(2-((2,5-dimethyl-4-((E)-1-(morpholinoimino)propyl)-phenoxy)methyl)phenyl)-3-methoxyacrylate], the pIC50 was 5.38.

As to `CO/C=C(/C(=O)OC)c1ccccc1COc1ccc(/C=N/O)cc1C` [Compound 31, (E)-methyl 2-(2-((4-((E)-(hydroxyimino)methyl)-2-methylphenoxy)-methyl)phenyl)-3-methoxyacrylate], the pIC50 was 5.76. Compared with the last compound, the pIC50 is 0.38 log units higher. In turn, `CCCO/N=C/c1ccc(OCc2ccccc2/C(=C\OC)C(=O)OC)c(C)c1` [Compound 32, (E)-methyl 2-(2-((2-methyl-4-((E)-(propoxyimino)methyl)phenoxy)-methyl)phenyl)-3-methoxyacrylate] gave a pIC50 of 7.70. This pIC50 lies 1.94 log units higher than the previous one. Compound `CO/C=C(/C(=O)OC)c1ccccc1COc1ccc(/C=N/OCc2ccccc2)cc1C` [Compound 33, (E)-methyl 2-(2-((4-((E)-(benzyloxyimino)methyl)-2-methylphenoxy)-methyl)phenyl)-3-methoxyacrylate] had a pIC50 of 6.68. In turn, `CO/C=C(/C(=O)OC)c1ccccc1COc1ccc(/C(C)=N/O)cc1OC` [Compound 34, (E)-methyl 2-(2-((4-((E)-1-(hydroxyimino)ethyl)-2-methoxyphenoxy)-methyl)phenyl)-3-methoxyacrylate] had a pIC50 of 5.35.

As to `CCCO/N=C(\C)c1ccc(OCc2ccccc2/C(=C\OC)C(=O)OC)c(OC)c1` [Compound 35, (E)-methyl 2-(2-((4-((E)-1-(propoxyimino)ethyl)-2-methoxyphenoxy)-methyl)phenyl)-3-methoxyacrylate], the pIC50 was 5.72.
